Data: ChEMBL document CHEMBL5291721, “A preclinical secondary pharmacology resource illuminates target-adverse drug reaction associations of marketed drugs” (Nat Commun, 2023)

Tests used:
Thromboxane A2 receptor = target: T1, Thromboxane A2 receptor (Homo sapiens, UniProt P21731)
T1 sequence (P21731 whole entry): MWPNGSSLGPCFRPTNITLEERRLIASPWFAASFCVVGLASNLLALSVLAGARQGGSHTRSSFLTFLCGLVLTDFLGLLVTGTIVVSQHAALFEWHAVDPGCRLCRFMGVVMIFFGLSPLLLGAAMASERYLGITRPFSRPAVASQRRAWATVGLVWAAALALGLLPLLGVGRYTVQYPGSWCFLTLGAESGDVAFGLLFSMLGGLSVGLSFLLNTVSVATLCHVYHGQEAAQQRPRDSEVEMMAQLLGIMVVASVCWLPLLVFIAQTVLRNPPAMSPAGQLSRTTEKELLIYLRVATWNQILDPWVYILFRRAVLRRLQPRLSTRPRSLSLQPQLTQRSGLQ

[1] = target: T2, Alpha-1A adrenergic receptor (Homo sapiens, UniProt P35348)
T2 sequence (P35348 whole entry): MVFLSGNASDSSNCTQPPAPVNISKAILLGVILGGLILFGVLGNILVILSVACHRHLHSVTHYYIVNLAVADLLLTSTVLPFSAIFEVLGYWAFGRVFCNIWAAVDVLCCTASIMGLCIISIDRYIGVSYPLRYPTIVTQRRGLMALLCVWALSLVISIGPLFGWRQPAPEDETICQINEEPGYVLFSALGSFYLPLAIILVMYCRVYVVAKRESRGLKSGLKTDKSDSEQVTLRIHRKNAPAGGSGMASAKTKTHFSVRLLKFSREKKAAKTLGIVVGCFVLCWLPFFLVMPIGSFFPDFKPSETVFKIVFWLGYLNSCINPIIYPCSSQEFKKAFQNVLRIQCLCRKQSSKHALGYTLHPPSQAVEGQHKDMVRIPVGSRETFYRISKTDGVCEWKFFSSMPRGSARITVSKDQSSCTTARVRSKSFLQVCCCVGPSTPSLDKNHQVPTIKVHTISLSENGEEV

Histamine H2 receptor = Histamine H2 receptor (Homo sapiens, UniProt P25021); format: functional, cell-based
Histamine H2 receptor, sequence (P25021 whole entry): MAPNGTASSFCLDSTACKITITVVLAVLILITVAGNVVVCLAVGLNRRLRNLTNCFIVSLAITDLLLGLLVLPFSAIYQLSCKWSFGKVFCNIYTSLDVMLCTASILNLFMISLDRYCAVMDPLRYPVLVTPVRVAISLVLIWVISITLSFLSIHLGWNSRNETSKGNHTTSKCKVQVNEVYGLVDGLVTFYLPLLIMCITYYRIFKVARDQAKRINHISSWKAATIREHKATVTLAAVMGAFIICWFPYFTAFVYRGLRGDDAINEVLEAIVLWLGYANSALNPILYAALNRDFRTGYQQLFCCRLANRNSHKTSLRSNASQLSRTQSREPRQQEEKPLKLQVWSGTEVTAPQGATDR

Mu-type opioid receptor = Mu-type opioid receptor (Homo sapiens, UniProt P35372); test: biochemical; format: functional
Mu-type opioid receptor, sequence (P35372 whole entry): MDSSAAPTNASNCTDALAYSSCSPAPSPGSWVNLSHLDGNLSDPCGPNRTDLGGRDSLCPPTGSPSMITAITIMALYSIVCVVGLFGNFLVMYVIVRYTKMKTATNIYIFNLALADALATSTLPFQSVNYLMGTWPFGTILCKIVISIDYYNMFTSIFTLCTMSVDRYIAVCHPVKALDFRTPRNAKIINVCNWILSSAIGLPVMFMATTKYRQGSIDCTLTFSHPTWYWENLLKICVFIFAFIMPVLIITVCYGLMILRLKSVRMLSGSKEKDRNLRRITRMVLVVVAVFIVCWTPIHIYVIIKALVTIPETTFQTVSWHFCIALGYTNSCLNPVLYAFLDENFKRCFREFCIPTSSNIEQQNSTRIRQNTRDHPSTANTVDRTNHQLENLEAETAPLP

Cannabinoid receptor 1 [2] = target: T3, Cannabinoid receptor 1 (Homo sapiens, UniProt P21554); format: functional, cell-based
T3 sequence (P21554 whole entry): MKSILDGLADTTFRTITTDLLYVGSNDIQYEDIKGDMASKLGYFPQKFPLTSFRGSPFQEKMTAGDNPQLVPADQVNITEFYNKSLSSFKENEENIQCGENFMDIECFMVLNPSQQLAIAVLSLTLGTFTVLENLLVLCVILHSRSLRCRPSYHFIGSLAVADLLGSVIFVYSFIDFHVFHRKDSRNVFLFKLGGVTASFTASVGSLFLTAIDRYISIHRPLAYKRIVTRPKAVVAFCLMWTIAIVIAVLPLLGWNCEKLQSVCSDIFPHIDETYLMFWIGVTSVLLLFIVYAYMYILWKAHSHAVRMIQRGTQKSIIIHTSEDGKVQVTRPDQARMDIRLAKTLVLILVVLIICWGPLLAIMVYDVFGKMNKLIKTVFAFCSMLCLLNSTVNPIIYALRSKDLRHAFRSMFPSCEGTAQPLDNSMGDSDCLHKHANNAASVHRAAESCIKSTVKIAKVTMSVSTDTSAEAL

[3] = target: T4, 5-hydroxytryptamine receptor 1A (Homo sapiens, UniProt P08908); format: functional, cell-based
T4 sequence (P08908 whole entry): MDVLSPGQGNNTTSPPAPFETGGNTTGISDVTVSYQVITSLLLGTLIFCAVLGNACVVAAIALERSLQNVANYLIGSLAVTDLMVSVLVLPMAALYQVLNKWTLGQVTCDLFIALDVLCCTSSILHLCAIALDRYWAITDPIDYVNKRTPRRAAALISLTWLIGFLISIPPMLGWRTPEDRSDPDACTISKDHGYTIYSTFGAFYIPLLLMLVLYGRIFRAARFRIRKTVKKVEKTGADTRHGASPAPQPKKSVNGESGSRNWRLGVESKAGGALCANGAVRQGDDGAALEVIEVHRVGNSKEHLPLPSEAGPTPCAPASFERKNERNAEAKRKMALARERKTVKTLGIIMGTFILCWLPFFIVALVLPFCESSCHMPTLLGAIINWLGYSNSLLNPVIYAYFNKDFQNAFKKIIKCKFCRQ

[4] = target: 5-hydroxytryptamine receptor 2A (Homo sapiens, UniProt P28223); format: functional, cell-based
5-hydroxytryptamine receptor 2A, sequence (P28223 whole entry): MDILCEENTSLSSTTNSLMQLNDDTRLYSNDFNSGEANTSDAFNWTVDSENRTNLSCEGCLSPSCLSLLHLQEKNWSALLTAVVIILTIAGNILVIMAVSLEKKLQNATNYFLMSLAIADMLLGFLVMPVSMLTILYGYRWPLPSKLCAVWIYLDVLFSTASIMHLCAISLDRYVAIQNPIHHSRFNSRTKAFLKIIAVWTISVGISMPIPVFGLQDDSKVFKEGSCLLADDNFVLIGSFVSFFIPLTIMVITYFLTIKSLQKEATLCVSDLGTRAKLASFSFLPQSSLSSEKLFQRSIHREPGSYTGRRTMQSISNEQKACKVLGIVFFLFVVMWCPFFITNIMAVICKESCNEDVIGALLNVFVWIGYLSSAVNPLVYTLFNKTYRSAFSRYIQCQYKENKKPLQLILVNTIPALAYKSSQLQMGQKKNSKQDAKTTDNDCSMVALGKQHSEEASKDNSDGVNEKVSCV

B2 bradykinin receptor = target: T5, B2 bradykinin receptor (Homo sapiens, UniProt P30411)
T5 sequence (P30411 whole entry): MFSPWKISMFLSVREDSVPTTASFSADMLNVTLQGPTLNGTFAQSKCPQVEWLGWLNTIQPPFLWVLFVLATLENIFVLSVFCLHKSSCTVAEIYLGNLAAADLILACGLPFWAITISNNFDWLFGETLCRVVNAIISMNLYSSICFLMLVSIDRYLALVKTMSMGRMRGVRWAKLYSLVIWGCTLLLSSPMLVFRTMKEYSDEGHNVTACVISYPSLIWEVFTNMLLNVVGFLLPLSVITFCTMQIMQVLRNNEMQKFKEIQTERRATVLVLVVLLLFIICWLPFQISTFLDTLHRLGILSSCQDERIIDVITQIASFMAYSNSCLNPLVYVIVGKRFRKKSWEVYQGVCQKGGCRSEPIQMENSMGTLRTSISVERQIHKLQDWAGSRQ

[5] = target: Voltage-dependent L-type calcium channel subunit alpha-1C (Rattus norvegicus, UniProt P22002); format: functional
Voltage-dependent L-type calcium channel subunit alpha-1C, sequence (P22002 whole entry): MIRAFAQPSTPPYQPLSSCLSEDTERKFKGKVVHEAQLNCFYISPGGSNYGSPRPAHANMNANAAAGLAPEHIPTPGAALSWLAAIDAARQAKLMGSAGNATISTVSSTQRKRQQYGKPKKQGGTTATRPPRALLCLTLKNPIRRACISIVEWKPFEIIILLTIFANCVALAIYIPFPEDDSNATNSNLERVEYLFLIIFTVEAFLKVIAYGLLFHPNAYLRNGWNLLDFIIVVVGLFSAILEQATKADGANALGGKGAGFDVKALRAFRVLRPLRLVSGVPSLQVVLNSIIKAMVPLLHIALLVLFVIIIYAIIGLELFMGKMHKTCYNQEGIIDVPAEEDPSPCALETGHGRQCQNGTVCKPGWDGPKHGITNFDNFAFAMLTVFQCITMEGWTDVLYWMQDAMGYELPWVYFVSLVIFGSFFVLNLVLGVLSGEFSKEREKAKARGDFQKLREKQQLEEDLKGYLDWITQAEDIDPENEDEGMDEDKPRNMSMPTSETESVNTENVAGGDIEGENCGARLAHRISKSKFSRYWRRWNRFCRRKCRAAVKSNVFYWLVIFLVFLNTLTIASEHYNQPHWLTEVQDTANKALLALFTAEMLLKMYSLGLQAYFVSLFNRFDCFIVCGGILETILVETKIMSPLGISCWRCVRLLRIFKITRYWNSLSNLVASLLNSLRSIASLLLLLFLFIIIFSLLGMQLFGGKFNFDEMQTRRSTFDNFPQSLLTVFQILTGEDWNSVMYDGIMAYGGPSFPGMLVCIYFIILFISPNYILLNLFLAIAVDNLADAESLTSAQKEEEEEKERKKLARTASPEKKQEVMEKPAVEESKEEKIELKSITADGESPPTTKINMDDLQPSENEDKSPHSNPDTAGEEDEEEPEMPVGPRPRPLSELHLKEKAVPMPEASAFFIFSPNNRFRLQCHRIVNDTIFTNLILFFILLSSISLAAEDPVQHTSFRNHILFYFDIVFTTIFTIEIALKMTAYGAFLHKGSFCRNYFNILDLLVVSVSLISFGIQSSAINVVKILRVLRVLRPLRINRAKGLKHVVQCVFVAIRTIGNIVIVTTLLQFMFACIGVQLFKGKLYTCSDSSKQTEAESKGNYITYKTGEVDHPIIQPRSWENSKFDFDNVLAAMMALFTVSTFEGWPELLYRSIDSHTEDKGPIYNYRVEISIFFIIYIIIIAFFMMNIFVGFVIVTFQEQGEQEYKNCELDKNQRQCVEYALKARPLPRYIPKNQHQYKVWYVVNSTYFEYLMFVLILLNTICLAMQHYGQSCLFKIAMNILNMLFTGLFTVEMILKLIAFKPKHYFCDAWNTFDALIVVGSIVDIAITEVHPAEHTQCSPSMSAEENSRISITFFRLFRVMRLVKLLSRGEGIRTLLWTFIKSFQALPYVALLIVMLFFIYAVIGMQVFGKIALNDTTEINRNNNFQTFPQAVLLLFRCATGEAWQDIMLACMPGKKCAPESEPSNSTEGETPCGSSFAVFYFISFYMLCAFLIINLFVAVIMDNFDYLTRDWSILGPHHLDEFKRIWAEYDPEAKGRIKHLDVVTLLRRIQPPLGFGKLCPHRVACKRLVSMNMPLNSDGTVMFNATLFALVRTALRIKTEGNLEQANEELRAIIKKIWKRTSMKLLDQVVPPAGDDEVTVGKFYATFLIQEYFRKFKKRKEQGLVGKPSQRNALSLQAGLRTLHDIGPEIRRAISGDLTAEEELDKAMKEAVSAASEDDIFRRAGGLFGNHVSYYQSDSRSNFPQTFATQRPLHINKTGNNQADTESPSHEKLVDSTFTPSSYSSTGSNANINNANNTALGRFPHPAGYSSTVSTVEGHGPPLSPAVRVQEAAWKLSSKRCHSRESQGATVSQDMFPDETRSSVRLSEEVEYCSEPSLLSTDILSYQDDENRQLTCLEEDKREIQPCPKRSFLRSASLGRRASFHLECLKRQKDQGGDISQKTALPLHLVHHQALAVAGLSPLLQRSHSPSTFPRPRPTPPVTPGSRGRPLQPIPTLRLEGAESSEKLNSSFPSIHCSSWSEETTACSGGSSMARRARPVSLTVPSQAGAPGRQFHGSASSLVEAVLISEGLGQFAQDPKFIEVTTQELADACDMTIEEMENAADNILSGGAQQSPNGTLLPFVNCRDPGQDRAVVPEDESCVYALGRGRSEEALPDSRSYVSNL

Progesterone receptor = target: T6, Progesterone receptor (Homo sapiens, UniProt P06401); format: functional
T6 sequence (P06401 whole entry): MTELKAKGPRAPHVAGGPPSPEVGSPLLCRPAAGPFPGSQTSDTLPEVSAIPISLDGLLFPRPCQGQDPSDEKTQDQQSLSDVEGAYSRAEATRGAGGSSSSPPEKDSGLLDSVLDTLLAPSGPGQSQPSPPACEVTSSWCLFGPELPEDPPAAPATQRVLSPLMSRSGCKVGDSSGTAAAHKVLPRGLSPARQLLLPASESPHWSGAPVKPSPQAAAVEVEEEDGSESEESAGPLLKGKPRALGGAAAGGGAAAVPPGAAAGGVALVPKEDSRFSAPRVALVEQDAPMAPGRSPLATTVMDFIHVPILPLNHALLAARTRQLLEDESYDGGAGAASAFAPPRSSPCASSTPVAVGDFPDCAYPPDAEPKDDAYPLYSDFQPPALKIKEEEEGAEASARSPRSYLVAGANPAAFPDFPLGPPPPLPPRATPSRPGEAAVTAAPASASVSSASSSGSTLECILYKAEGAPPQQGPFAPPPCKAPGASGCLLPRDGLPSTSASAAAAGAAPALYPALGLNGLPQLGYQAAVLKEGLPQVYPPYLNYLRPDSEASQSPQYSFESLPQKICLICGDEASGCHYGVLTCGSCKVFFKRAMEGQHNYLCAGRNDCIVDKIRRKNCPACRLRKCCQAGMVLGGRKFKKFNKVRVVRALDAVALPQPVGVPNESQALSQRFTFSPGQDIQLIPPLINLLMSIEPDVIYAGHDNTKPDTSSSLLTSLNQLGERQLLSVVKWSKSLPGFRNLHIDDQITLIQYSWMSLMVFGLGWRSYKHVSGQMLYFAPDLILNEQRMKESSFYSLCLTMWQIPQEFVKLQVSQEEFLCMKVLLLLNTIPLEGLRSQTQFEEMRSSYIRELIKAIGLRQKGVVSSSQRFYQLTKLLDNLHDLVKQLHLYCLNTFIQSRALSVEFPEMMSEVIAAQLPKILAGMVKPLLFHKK

Vasopressin V1a receptor = Vasopressin V1a receptor (Homo sapiens, UniProt P37288)
Vasopressin V1a receptor, sequence (P37288 whole entry): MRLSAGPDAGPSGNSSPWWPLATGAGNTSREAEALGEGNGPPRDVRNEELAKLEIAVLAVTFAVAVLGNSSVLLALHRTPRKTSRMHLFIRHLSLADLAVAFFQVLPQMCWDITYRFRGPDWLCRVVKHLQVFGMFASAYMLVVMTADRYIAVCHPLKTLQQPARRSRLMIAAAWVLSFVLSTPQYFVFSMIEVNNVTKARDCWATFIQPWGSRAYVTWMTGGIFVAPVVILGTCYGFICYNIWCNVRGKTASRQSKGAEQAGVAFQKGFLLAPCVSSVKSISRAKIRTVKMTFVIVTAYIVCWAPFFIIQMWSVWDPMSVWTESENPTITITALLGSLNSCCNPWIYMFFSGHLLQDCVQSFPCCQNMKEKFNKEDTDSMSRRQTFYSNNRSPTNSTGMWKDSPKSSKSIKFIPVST

Cannabinoid receptor 1 [6] = target: T3, Cannabinoid receptor 1
Further: assay procedure not described here.

Structure (SMILES) | AC50 (Thromboxane A2 receptor) [µM] | AC50 [1] [µM] | AC50 (Histamine H2 receptor) [µM] | AC50 (Mu-type opioid receptor) [µM] | AC50 (Cannabinoid receptor 1 [2]) [µM] | AC50 [3] [µM] | AC50 [4] [µM] | AC50 (B2 bradykinin receptor) [µM] | AC50 [5] [µM] | AC50 (Progesterone receptor) [µM] | AC50 (Vasopressin V1a receptor) [µM] | AC50 (Cannabinoid receptor 1 [6]) [µM]
O=C(O)c1cccc(-c2noc(-c3ccccc3F)n2)c1 | > 30 | > 10 |  |  |  |  |  |  |  |  |  | 
CO/N=C(\C(=O)N[C@@H]1C(=O)N2C(C(=O)OCOC(=O)C(C)(C)C)=C(C)CS[C@H]12)c1csc(N)n1 |  |  | > 30 | > 30 | > 30 | > 30 | > 30 |  |  |  |  | 
NS(=O)(=O)c1cc(-c2nnn[nH]2)c(NCc2cccs2)cc1Cl [AZOSEMIDE] | > 30 |  | > 30 | > 30 | > 30 | > 30 | > 30 | > 30 | > 30 | > 30 | > 30 | 
O=C(Cn1ccnc1[N+](=O)[O-])NCc1ccccc1 [BENZNIDAZOLE] | > 30 |  | > 30 | > 30 | > 30 | > 30 | > 30 | > 30 | > 30 | > 30 | > 30 | 
C[N+](C)(C)CC(=O)O [BETAINE] | > 30 |  | > 30 | > 30 | > 30 | > 30 | > 30 | > 30 | > 30 | > 30 | > 30 | 
CCCC(=O)N1CCCN(c2nc(N)c3cc(OC)c(OC)cc3n2)CC1 [BUNAZOSIN] |  |  | > 30 | > 30 | > 30 | > 30 | > 30 | > 30 |  | > 30 | > 30 | 
N[C@@H](CSCC(=O)O)C(=O)O [CARBOCYSTEINE] | > 30 |  | > 30 | > 30 | > 30 | > 30 | > 30 | > 30 | > 30 | > 30 | > 30 | 
COCC1=C(C(=O)OC(C)OC(=O)OC(C)C)N2C(=O)[C@@H](NC(=O)/C(=N\OC)c3csc(N)n3)[C@H]2SC1 (stereo partly specified) [CEFPODOXIME PROXETIL] |  |  | > 30 | > 30 | > 30 | > 30 | > 30 |  |  |  |  | 
CC(C)(N)Cc1ccc(Cl)cc1 [CHLORPHENTERMINE] | > 30 | > 10 | > 10 |  | > 30 | > 10 | > 30 | > 30 | > 10 |  | > 30 | > 10
NS(=O)(=O)c1cc2c(cc1Cl)NC(CC1CCCC1)NS2(=O)=O (stereo unspecified) [CYCLOPENTHIAZIDE] |  |  | > 30 | > 30 | > 30 | > 30 | > 30 |  |  |  |  | 
N/N=c1/cc2c(n[nH]1)CCN(C(=O)c1ccccc1)C2 [ENDRALAZINE] |  |  | > 30 | > 30 | > 30 | > 30 | > 30 |  |  |  |  | 
C=C1C[C@@H]2[C@H](CC[C@]3(C)C(=O)CC[C@@H]23)[C@@]2(C)C=CC(=O)C=C12 [EXEMESTANE] | > 30 | > 10 | > 10 |  | > 30 | > 10 | > 30 | > 30 | > 10 |  | > 30 | > 10
CC(C(O)c1ccc(O)cc1)N1CCC(Cc2ccccc2)CC1 (stereo unspecified) [IFENPRODIL] | > 30 |  | > 30 | > 30 | > 30 | 1.3 | > 30 | > 30 | > 30 |  | > 30 | 
CS(=O)(=O)Nc1cc2occ(NC=O)c(=O)c2cc1Oc1ccccc1 [IGURATIMOD] |  |  |  |  |  |  |  |  |  | > 30 |  | 
CC(=O)N(CC(O)CO)c1c(I)c(C(=O)NCC(O)CO)c(I)c(C(=O)NCC(O)CO)c1I (stereo unspecified) [IOHEXOL] | > 30 | > 10 | > 10 |  | > 30 | > 10 | > 30 | > 30 | > 10 |  | > 30 | 
CN(CCCN1c2ccccc2CCc2ccccc21)CC(=O)c1ccc(Cl)cc1 [LOFEPRAMINE] | > 30 |  | > 30 | > 30 | 3.5 | > 30 | > 30 | > 10 | 2.4 |  | > 30 | 6.9
CN1C(=O)N(C)C2C1N(C)C(=O)N2C (stereo unspecified) [MEBICAR] |  |  | > 30 |  | > 30 | > 30 | > 30 |  |  |  |  | 
CC(=O)O[C@]1(C(C)=O)CC[C@H]2[C@@H]3C[C@H](C)C4=CC(=O)CC[C@]4(C)[C@H]3CC[C@@]21C [MEDROXYPROGESTERONE ACETATE] |  |  |  |  |  |  |  | > 30 |  |  | > 30 | 
CN(C/C=C/c1ccccc1)Cc1cccc2ccccc12 [NAFTIFINE] | > 30 | 2.15 | > 10 |  | > 30 | > 10 |  | > 30 | > 10 | > 30 |  | 9.87
Nc1ccc(/N=N/c2ccccc2)c(N)n1 [PHENAZOPYRIDINE] |  |  | > 30 |  | > 30 |  | > 30 |  |  |  |  | 
O=C1CCC(N2C(=O)c3ccccc3C2=O)C(=O)N1 (stereo unspecified) [THALIDOMIDE] | > 30 | > 10 | > 10 |  | > 30 | > 10 |  | > 30 | > 10 |  | > 10 | > 10
